Experimental data reported in US10188625B2, “Combination of a retinoid and a diol and polyunsaturated fatty acid ester” (PIERRE FABRE DERMO-COSMETIQUE, priority 2015, dated 2019).

Assays:
[1] = tested on: retentional lesions (open and closed comedones); experiment: Clinical study (open) of creams: count of retentional lesions in subjects with mild to moderate acne; assay type: in vivo, human; settings: topical cream (retinaldehyde 0.1% and/or Compound A 0.6%)
Source text: The clinical trial was an open study involving 60 subjects (men and women) between 12 and 35 years of age with mild to moderate acne for purposes of testing the tolerance and efficacy of Composition 2.
All of the participants initially had more than 10 retentional lesions (open and closed comedones) on their skin (excluding the nasal pyramid).
The cream was applied to the face (clean skin) in the evening by means of gentle massage.
The lesions were counted at T0 (before the first treatment), T3 weeks and T6 weeks according to the method described by Lucky (Lucky AW et al. (1996)).
The clinical trial was an open study involving 29 subjects (men and women) between 12 and 35 years of age with mild to moderate acne for purposes of testing the tolerance and efficacy of cream having the following composition:
All of the participants initially had more than 10 retentional lesions (open and closed comedones) on their skin.
The lesions were counted at T0, T3 weeks and T6 weeks.
The clinical trial was an open study involving 46 subjects (men and women) between 12 and 35 years of age with mild to moderate acne for purposes of testing the tolerance and efficacy of cream having the following composition:
The cream was applied to the face (clean skin) twice per day (morning and evening) by means of gentle massage.

[2] = tested on: genes responsible for differentiation in keratinocytes (human skin explants); experiment: Microarray analysis of differentiation genes in human skin explants treated topically with retinaldehyde; assay type: cell-based
Experimental: In these experiments, retinaldehyde was applied topically for 24 hours at a concentration of 0.025% dissolved in Myritol on human skin explants (of 3 donors) kept alive in culture medium (Dulbecco's Modified Eagle Medium (DMEM)+10% fetal bovine serum (FBS)). Myritol alone was used as the control. At the conclusion of this treatment, the RNA is extracted, inspected for quality, and analyzed by means of a microarray (Agilent Technology). They are averaged fold-change values below 1.8 (p<0.05). A fold change of −2.00 corresponds to a decrease in gene expression of about 50%.

[3] = tested on: keratinocyte proliferation; experiment: Keratinocyte proliferation; assay type: cell-based
[4] = tested on: genes responsible for differentiation in keratinocytes (human skin explants); experiment: Microarray analysis of differentiation genes in human skin explants treated topically with retinaldehyde; assay type: cell-based; settings: 0.025% in Myritol, topical 24 hours
[5] = human skin explants (3 donors), control Myritol alone, p 0.115

**Q.** For CC/C=C\C/C=C\C/C=C\CCCCCCCC(=O)OCC(O)CCCCCC (centres unmarked) [Compound A], which “Change in mean number of retentional lesions” value (“Change in mean number” for short) ([1]; T = 3 weeks) is on record?
**A.** −6%

**Q.** What about the “Change in mean number” value ([1]; T = 6 weeks) of the same compound?
**A.** −19%

**Q.** With CC1=C(/C=C/C(C)=C/C=C/C(C)=C/C=O)C(C)(C)CCC1 [Retinaldehyde, retinaldehyde] as the compound, how does the “Fold change, KRTCAP3 (keratinocyte associated protein 3)” value ([2]; 0.025% in Myritol, topical 24 hours, human skin explants (3 donors), control Myritol alone, p 0.009) read?
**A.** −1.81

**Q.** What about the “Fold change, KRT6A (keratin 6A)” value ([2]; 0.025% in Myritol, topical 24 hours, human skin explants (3 donors), control Myritol alone, p 0.012) of the same compound?
**A.** −2.83

**Q.** And the “Fold change, KRT6C (keratin 6C)” value ([2]; 0.025% in Myritol, topical 24 hours, human skin explants (3 donors), control Myritol alone, p 0.015)?
**A.** −3.61

**Q.** What about the “Fold change, FLJ46111 (keratin 8 pseudogene)” value ([2]; 0.025% in Myritol, topical 24 hours, human skin explants (3 donors), control Myritol alone, p 0.016) of the same compound?
**A.** −2.71

**Q.** What about the “Fold change, EPPK1 (epiplakin 1)” value ([2]; 0.025% in Myritol, topical 24 hours, human skin explants (3 donors), control Myritol alone, p 0.042) of the same compound?
**A.** −1.60

**Q.** What about the “effect on keratinocyte differentiation” value ([2]; conclusion from gene modulation in human skin explants) of the same compound?
**A.** inhibits keratinocyte differentiation

**Q.** What about the “effect on cell (keratinocyte) proliferation” value [3] of the same compound?
**A.** does not increase cell proliferation

**Q.** And the “number of keratins inhibited” value ([4]; human skin explants)?
**A.** 11

**Q.** And the “number of targets of terminal keratinocyte differentiation inhibited” value ([4]; human skin explants)?
**A.** 13

**Q.** And the “Fold change, CNFN (cornifelin)” value ([4]; human skin explants (3 donors), control Myritol alone, p 0.004)?
**A.** −1.56

**Q.** What about the “Fold change, KRT16 (keratin 16)” value ([4]; human skin explants (3 donors), control Myritol alone, p 0.027) of the same compound?
**A.** −2.63

**Q.** What about the “Fold change, CDSN (corneodesmosin)” value ([4]; human skin explants (3 donors), control Myritol alone, p 0.052) of the same compound?
**A.** −1.49

**Q.** What about the “Fold change, DSG3 (desmoglein 3)” value ([4]; human skin explants (3 donors), control Myritol alone, p 0.056) of the same compound?
**A.** −1.77

**Q.** And the “Fold change, DSC1 (desmocollin 1)” value ([4]; human skin explants (3 donors), control Myritol alone, p 0.058)?
**A.** −1.70

**Q.** What about the “Fold change, DSG1 (desmoglein 1)” value ([4]; human skin explants (3 donors), control Myritol alone, p 0.070) of the same compound?
**A.** −1.68

**Q.** What about the “Fold change, EVPL (envoplakin)” value ([4]; human skin explants (3 donors), control Myritol alone, p 0.072) of the same compound?
**A.** −1.41

**Q.** What about the “Fold change, UPK2 (uroplakin 2)” value ([4]; human skin explants (3 donors), control Myritol alone, p 0.091) of the same compound?
**A.** −1.53

**Q.** And the “Fold change, DSC3 (desmocollin 3)” value ([4]; human skin explants (3 donors), control Myritol alone, p 0.095)?
**A.** −1.55

**Q.** What about the “Fold change, KRTAP11-1 (keratin associated protein 11-1)” value [4, 5] of the same compound?
**A.** −4.68

**Q.** What about the “Fold change, LCE3A (late cornified envelope 3A)” value [4, 5] of the same compound?
**A.** −2.73

**Q.** And the “Fold change, LCE3D (late cornified envelope 3D)” value ([4]; human skin explants (3 donors), control Myritol alone, p 0.271)?
**A.** −1.90

**Q.** And the “Fold change, KRTAP3-1 (keratin associated protein 3-1)” value ([4]; human skin explants (3 donors), control Myritol alone, p 0.288)?
**A.** −2.09

**Q.** And the “Fold change, KRT6B (keratin 6B)” value ([4]; human skin explants (3 donors), control Myritol alone, p 0.325)?
**A.** −1.83

**Q.** And the “Fold change, KRT27 (keratin 27)” value ([4]; human skin explants (3 donors), control Myritol alone, p 0.372)?
**A.** −2.66

**Q.** And the “Fold change, KRT86 (keratin 86)” value ([4]; human skin explants (3 donors), control Myritol alone, p 0.472)?
**A.** −2.19

**Q.** What about the “Change in mean number” value ([1]; T = 3 weeks) of the same compound?
**A.** −23%

**Q.** And the “Change in mean number” value ([1]; T = 6 weeks)?
**A.** −37%
